These compounds were tested against KRasG12D (Homo sapiens, UniProt P01116, G12D) (assay: KRAS inhibitory activity test, TR-FRET (inhibition of binding of KRasG12D to GTP, SOS/GTP nucleotide exchange)). Settings: read-out: IC50 values of the compounds for inhibiting KRAS enzymes, G12D.
Type: biochemical
Experimental: • 1. […] Reagent Preparation: • a. Storage Reagents:
Prepare a 1L solution by mixing 20mL of 1000mM HEPES, 20mL of 500mM EDTA, 10mL of 5M sodium chloride, 0.1mL of 100% Tween 20, and 949.9mL of water. Sterilize by filtration and store at 4°C.
Prepare a 1L solution by mixing 20mL of 1000mM HEPES, 10mL of 1000mM magnesium chloride, 30mL of 5M sodium chloride, 0.05mL of 100% Tween 20, and 939.95mL of water. Sterilize by filtration and store at 4°C. 3) KRAS/Bodipy GDP/Tb-SA Mixture: Mix 9.5 µL of 95 µM KRasG12D protein with 440.5 µL of KRAS nucleotide exchange buffer. Incubate at room temperature for 1 hour. Then, mix with 8.4 µL of 17.9 µM Tb-SA, 1.8 µL of 5 mM Bodipy GDP, and 9539.8 µL of KRAS experimental buffer to prepare […]. After mixing, incubate at room temperature for 6 hours and store at -80°C.
• 1) KRAS Enzyme Solution: Mix 73.3 µL of KRAS/Bodipy GDP/Tb-SA mixture with 2126.7 µL of KRAS experimental buffer to prepare a 2200 µL solution. • 2) SOS/GTP Mixture
c. Experimental Procedure: Mix 1.59 µL of 166 µM SOS protein with 198 µL of 100 mM... GTP and 0.41 µL KRAS buffer were prepared to a 2200 µL solution. The stock solution concentration of the control compound was 1 mM, and the stock solution concentration of the test compound was 10 mM. 9 µL of the control compound and the test compound were transferred to a 384-LDV plate. The compound on the LDV plate was 3-fold diluted 10-point using Bravo. 9 nL of the compound on the LDV plate was transferred to the experimental plate using ECHO. 3 µL of a 3 nM Kras/0.5 nM TB-SA/30 nM BodipyGDP mixture and 3 µL of Ras buffer were added to each well of the experimental plate using a Dragonfly autopilot. The plate was centrifuged at 1000 rpm for 1 minute. The plate was incubated at room temperature for 1 hour. 3 µL of 120 nM SOS/9 mM KRAS buffer was added to each well of the experimental plate using a Dragonfly autopilot. The […] was centrifuged at 1000 rpm for 1 minute; the plate was incubated at room temperature for 1 hour; the plate was read and the data were recorded using Envision; the data were analyzed using Excel and Xlfit to calculate the IC50of the test compound. "++++" indicates IC50≤ 10 nM; "+++" indicates 10 nM < IC50≤ 100 nM; "++" indicates 100 nM < IC50≤ 2000 nM; "+" indicates 2000 nM < IC50.

Compound	IC50
CC#Cc1cc(N)c(F)c([C@@H]2Cc3nc(OC[C@@]45CCCN4C/C(=C\F)C5)nc(N4CC5CCC(C4)N5)c3CS2(=O)=O)c1C(F)(F)F [Compound 24A, (7S)-7-(3-amino-2-fluoro-5-(prop-1-yn-1-yl)-6-(trifluoromethyl)phenyl)-4-(3,8-diazabicyclo[3.2.1]octane-3-yl)-2-(((S)-2-(fluoromethylene)tetrahydro-1H-pyrrolazin-7a(5 H)-yl)methoxy)-7,8-dihydro-5H-thiopyrano[4,3-d]pyrimidine-6,6-dioxide]	≤ 10 nM
CC#Cc1cc(N)c(F)c([C@@H]2Cc3nc(OC[C@@]45CCCN4C[C@H](F)C5)nc(N4CC5CCC(C4)N5)c3CS2(=O)=O)c1C(F)(F)F [Compound 21A, (7S)-7-(3-amino-2-fluoro-5-(prop-1-yn-1-yl)-6-(trifluoromethyl)phenyl)-4-(3,8-diazabicyclo[3.2.1]octane-3-yl)-2-(((2R,7AS)-2-fluorotetrahydro-1H-pyrrolazin-7a(5H)-yl)methoxy)-7,8-dihydro-5H-thiopyrano[4,3-d]pyrimidine-6,6-dioxide]	≤ 10 nM
Cc1cc(O)nc([C@@H]2Cc3nc(OC[C@@]45CCCN4C[C@H](F)C5)nc(N4C[C@H]5CC[C@@H](C4)N5)c3CS2(=O)=O)c1C(F)(F)F [Compound 4A, (7S)-4-((1R,5S)-3,8-diazabicyclo[3.2.1]octane-3-yl)-2-(((2R,7AS)-2-fluorotetrahydro-1H-pyrrolazin-7a(5H)-yl)methoxy)-7-(6-hydroxy-4-methyl-3-(trifluoromethyl)pyridin-2-yl)-7,8-dihydro-5H-thiopyrano[4,3-d]pyrimidine-6,6-dioxide]	≤ 10 nM
Cc1cc(N)nc([C@@H]2Cc3nc(OC[C@@]45CCCN4CC(=CF)C5)nc(N4CC5CCC(C4)N5)c3CS2(=O)=O)c1C(F)(F)F [Compound 19A, (7S)-7-(6-amino-4-methyl-3-(trifluoromethyl)pyridin-2-yl)-2-(((S)-2-(fluoromethylene)tetrahydro-1H-pyrrolazin-7a(5H)-yl)methoxy)-4-(3,8-diazabicyclo[3.2.1]octane-3-y 1)-7,8-dihydro-5H-thiopyrano[4,3-d]pyrimidine-6,6-dioxide]	≤ 10 nM
Cc1cc(N)c(F)c([C@@H]2Cc3nc(OC[C@@]45CCCN4C[C@H](F)C5)nc(N4C[C@H]5CC[C@@H](C4)N5)c3CS2(=O)=O)c1C(F)(F)F [Compound 29A, (7S)-7-(3-amino-2-fluoro-5-methyl-6-(trifluoromethyl)phenyl)-4-((1R,5S)-3,8-diazabicyclo[3.2.1]octane-3-yl)-2-(((2R,7AS)-2-fluorotetrahydro-1H-pyrrolazin-7a(5H)-yl)methoxy)-7,8-dihydro-5H-thiopyrano[4,3-d]pyrimidine 6,6-Dioxide]	≤ 10 nM
Cc1cc(N)c(F)c([C@@H]2Cc3nc(OC[C@@]45CCCN4C[C@H](F)C5)nc(N4C[C@H]5CC[C@@H](C4)N5)c3CS2(=O)=O)c1C(F)(F)F [Compound 30A, (7S)-7-(3-amino-2-fluoro-5-methyl-6-(trifluoromethyl)phenyl)-4-((1R,5S)-3,8-diazabicyclo[3.2.1]octane-3-yl)-2-(((2R,7AS)-2-fluorotetrahydro-1H-pyrrolazin-7a(5H)-yl)methoxy)-7,8-dihydro-5H-thiopyrano[4,3-d]pyrimidine 6,6-Dioxide]	≤ 10 nM
Cc1cc(N)nc([C@H]2Cc3nc(OC[C@@]45CCCN4C[C@H](F)C5)nc(N4CCC[C@@](C)(O)C4)c3CS2(=O)=O)c1C(F)(F)F [Compound 8B, (7R)-7-(6-amino-4-methyl-3-(trifluoromethyl)pyridin-2-yl)-2-(((2R,7AS)-2-fluorotetrahydro-1H-pyrrolazin-7a(5H)-yl)methoxy)-4-((R)-3-hydroxy-3-methylpiperidin-1-yl) -7,8-dihydro-5H-thiopyrano[4,3-d]pyrimidine-6,6-dioxide]	10 to 100 nM
Cc1cc(N)cc([C@@H]2Cc3nc(OC[C@@]45CCCN4C/C(=C\F)C5)nc(N4CC5CCC(C4)N5)c3CS2(=O)=O)c1C(F)(F)F [Compound 39A]	≤ 10 nM
Cc1cc(N)c(F)c([C@@H]2Cc3nc(OC[C@@]45CCCN4C[C@H](F)C5)nc(N4CCC[C@@](C)(O)C4)c3CS2(=O)=O)c1C(F)(F)F [Compound 5A, (7S)-7-(3-amino-2-fluoro-5-methyl-6-(trifluoromethyl)phenyl)-2-(((2R,7AS)-2-fluorotetrahydro-1H-pyrrolazin-7a(5H)-yl)methoxy)-4-((R)-3-hydroxy-3-methylpiperidin-1-yl)-7,8-dihydro-5H-thiopyrano[4,3-d]pyrimidine-6,6-dioxide]	10 to 100 nM
(7S)-7-(6-amino-4-methyl-3-(trifluoromethyl)pyridin-2-yl)-2-(((2R,7AS)-2-fluorotetr ahydro-1H-pyrrolazin-7a(5H)-yl)methoxy)-4-((R)-3-hydroxy-3-methylpiperidin-1-yl) -7,8-dihydro-5H-thiopyrano[4,3-d]pyrimidine-6,6-dioxide [Compound 8A]	≤ 10 nM
Cc1cc(N)c(F)c([C@H]2Cc3nc(OC[C@@]45CCCN4C[C@H](F)C5)nc(N4CCC[C@@](C)(O)C4)c3CS2(=O)=O)c1C(F)(F)F [Compound 5B, (7R)-7-(3-amino-2-fluoro-5-methyl-6-(trifluoromethyl)phenyl)-2-(((2R,7AS)-2-fluorotetrahydro-1H-pyrrolazin-7a(5H)-yl)methoxy)-4-((R)-3-hydroxy-3-methylpiperidin-1-yl)-7,8-dihydro-5H-thiopyrano[4,3-d]pyrimidine-6,6-dioxide]	≤ 10 nM
C=C1CN2CCC[C@@]2(COc2nc3c(c(N4CC5CCC(C4)N5)n2)CS(=O)(=O)[C@H](c2nc(N)cc(C)c2C(F)(F)F)C3)C1 [Compound 20A, (7S)-7-(6-amino-4-methyl-3-(trifluoromethyl)pyridin-2-yl)-2-(((S)-2-(methylene)tetra hydro-1H-pyrrolazin-7a(5H)-yl)methoxy)-4-(3,8-diazabicyclo[3.2.1]octane-3-yl)-7,8-dihydro-5H-thiopyrano[4,3-d]pyrimidine-6,6-dioxide]	≤ 10 nM
Cc1cc(N)c(F)c([C@@H]2Cc3nc(OC[C@@]45CCCN4C[C@H](F)C5)nc(N4C[C@H]5CC[C@@H](C4)N5)c3CS2(=O)=O)c1C(F)(F)F [Compound 35A, (7S)-7-(3-amino-2-fluoro-5-methyl-6-(trifluoromethyl)phenyl)-4-((1R,5S)-3,8-diazabicyclo[3.2.1]octane-3-yl)-2-(((2R,7AS)-2-fluorotetrahydro-1H-pyrrolazin-7a(5H)-yl)methoxy)-7,8-dihydro-5H-thiopyrano[4,3-d]pyrimidine 6,6-Dioxide]	≤ 10 nM
CC#Cc1cc(N)cc([C@@H]2Cc3nc(OC[C@@]45CCCN4CC(=C(F)F)C5)nc(N4CC5CCC(C4)N5)c3CS2(=O)=O)c1C(F)(F)F [Compound 31A]	≤ 10 nM
CC#Cc1cc(N)c(F)c([C@@H]2Cc3nc(OC[C@@]45CCCN4CC(=C(F)F)C5)nc(N4CC5CCC(C4)N5)c3CS2(=O)=O)c1C(F)(F)F [Compound 23A, (7S)-7-(3-amino-2-fluoro-5-(prop-1-yn-1-yl)-6-(trifluoromethyl)phenyl)-4-(3,8-diazabicyclo[3.2.1]octane-3-yl)-2-(((S)-2-(difluoromethylene)tetrahydro-1H-pyrrolazin-7a(5H)-yl)methoxy)-7,8-dihydro-5H-thiopyrano[4,3-d]pyrimidine-6,6-dioxide]	≤ 10 nM
Cc1cc(N)nc([C@@H]2Cc3nc(OC[C@@]45CCCN4C[C@H](F)C5)nc(N4CCC[C@@](C)(O)C4)c3CS2(=O)=O)c1C(F)(F)F [Compound 7A, (7S)-7-(6-amino-4-methyl-3-(trifluoromethyl)pyridin-2-yl)-2-(((2R,7AS)-2-fluorotetrahydro-1H-pyrrolazin-7a(5H)-yl)methoxy)-4-((R)-3-hydroxy-3-methylpiperidin-1-yl) -7,8-dihydro-5H-thiopyrano[4,3-d]pyrimidine-6,6-dioxide]	≤ 10 nM
Cc1cc(N)c(F)c([C@@H]2Cc3nc(OC[C@@]45CCCN4C[C@H](F)C5)nc(N4C[C@H]5CC[C@@H](C4)N5)c3CS2(=O)=O)c1C(F)(F)F [Compound 38A, (7S)-7-(3-amino-2-fluoro-5-methyl-6-(trifluoromethyl)phenyl)-4-((1R,5S)-3,8-diazabicyclo[3.2.1]octane-3-yl)-2-(((2R,7AS)-2-fluorotetrahydro-1H-pyrrolazin-7a(5H)-yl)methoxy)-7,8-dihydro-5H-thiopyrano[4,3-d]pyrimidine 6,6-Dioxide]	≤ 10 nM
